The source of these data is publication PMC4664946, “The standalone aminopeptidase PepN catalyzes the maturation of blasticidin S from leucylblasticidin S” (Scientific Reports, 2015).

One experiment concerns the target T1, PepN1 (Streptomyces lividans, UniProt Q11010).
T1 construct: gene pepN; closely located to PepN2 gene
T1 sequence (Q11010 1-857): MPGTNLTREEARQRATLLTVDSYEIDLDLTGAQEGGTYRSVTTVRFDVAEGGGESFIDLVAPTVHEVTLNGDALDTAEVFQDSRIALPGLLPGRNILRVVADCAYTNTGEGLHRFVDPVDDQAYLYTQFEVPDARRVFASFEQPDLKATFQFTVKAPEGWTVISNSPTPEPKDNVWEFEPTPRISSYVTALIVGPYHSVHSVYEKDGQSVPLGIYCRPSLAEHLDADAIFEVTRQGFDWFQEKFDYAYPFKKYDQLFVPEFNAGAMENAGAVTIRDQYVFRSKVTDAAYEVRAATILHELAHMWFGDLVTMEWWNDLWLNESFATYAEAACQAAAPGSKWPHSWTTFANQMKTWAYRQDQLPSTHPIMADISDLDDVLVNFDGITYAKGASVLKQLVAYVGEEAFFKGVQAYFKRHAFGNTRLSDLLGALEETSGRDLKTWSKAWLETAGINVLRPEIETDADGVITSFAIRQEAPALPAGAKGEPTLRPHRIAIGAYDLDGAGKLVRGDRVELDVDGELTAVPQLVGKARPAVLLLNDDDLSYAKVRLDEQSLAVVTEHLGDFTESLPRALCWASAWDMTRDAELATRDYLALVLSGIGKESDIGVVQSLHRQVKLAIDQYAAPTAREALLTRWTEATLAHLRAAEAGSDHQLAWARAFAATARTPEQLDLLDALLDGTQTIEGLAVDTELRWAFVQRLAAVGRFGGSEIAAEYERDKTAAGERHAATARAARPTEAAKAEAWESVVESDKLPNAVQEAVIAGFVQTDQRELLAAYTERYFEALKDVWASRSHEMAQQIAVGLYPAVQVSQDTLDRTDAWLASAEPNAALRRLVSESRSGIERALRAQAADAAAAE
Briefly: HPLC (UV […] nm) of hydrolysis to blasticidin S. Type of experiment: biochemical. The note with it: pH 5 to 9 tested; 30 °C; hydrolysis of the beta-amide bond to leucine.

The target of another experiment is T2, PepN (Escherichia coli, UniProt P04825).
T2 sequence (P04825 2-870): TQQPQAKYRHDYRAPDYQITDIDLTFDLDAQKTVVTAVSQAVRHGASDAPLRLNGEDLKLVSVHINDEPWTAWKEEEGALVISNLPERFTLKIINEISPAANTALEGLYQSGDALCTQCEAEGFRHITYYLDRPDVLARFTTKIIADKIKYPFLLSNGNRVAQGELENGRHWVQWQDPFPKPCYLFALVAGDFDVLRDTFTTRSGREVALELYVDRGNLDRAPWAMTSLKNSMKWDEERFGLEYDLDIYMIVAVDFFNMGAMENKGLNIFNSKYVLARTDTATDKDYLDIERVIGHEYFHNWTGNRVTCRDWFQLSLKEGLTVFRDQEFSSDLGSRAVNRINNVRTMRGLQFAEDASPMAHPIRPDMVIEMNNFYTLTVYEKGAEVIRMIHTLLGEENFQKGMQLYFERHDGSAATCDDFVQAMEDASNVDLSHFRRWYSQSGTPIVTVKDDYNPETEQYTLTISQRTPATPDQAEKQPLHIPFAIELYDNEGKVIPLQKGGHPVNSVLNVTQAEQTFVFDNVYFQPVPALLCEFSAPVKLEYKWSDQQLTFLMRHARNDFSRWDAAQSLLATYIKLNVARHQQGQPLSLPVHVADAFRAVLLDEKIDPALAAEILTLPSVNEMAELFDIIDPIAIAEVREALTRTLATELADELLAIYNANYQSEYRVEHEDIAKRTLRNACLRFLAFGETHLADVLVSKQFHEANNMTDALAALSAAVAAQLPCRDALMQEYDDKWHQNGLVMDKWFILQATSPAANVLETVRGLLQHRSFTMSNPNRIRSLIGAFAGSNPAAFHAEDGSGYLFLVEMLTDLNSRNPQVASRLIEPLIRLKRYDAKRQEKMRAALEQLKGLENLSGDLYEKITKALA
Kind of experiment: HPLC (UV […] nm) of hydrolysis to blasticidin S. Type of experiment: biochemical. Conditions: 30 °C; 1 μM LBS overnight; pH 5 to 9 tested.

For `CC(C)C[C@H](N)C(=O)N[C@@H](CCN(C)C(=N)N)CC(=O)N[C@H]1C=C[C@H](n2ccc(N)nc2=O)O[C@@H]1C(=O)O` [LBS, leucylblasticidin S], the “HPLC (UV 272 nm) of hydrolysis to blasticidin S” value was “PepN and PepN1 exhibited similar LBS hydrolyzing efficiency” at PepN1; “PepN and PepN1 exhibited similar LBS hydrolyzing efficiency” at PepN.
